PMC3748009, “Novel Small-Molecule AMP-Activated Protein Kinase Allosteric Activator with Beneficial Effects in db/db Mice” (PLoS ONE, 2013)

How the values were obtained:
AMPK α1(1–394) [1] = biological target: T1, AMPK α1(1–394) (Homo sapiens, UniProt Q13131); assay: Dephosphorylation of AMPK α1 truncation by PP2Cα; type: biochemical; parameters: dephosphorylation by PP2Cα on AMPK α1(1–394) and α1(1–335); settings: Fig. S1A
Experimental: (§1) The dephosphorylation of AMPK was performed as described previously, [24].

AMPK α1(1–335) [2] = biological target: T2, AMPK α1(1–335) (Homo sapiens, UniProt Q13131); assay: Dephosphorylation of AMPK α1 truncation by PP2Cα; type: biochemical; parameters: dephosphorylation by PP2Cα on AMPK α1(1–394) and α1(1–335); settings: Fig. S1B
T2 sequence (Q13131 10-344): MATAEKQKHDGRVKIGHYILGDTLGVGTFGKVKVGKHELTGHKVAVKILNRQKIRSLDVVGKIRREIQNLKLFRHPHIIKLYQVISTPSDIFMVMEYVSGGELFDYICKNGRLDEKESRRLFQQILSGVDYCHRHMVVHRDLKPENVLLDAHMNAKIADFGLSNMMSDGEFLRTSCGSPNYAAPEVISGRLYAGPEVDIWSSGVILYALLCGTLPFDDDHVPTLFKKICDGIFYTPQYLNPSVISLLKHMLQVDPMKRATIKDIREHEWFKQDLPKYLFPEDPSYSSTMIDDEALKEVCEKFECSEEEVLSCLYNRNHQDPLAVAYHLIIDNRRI
Experimental: as §1

rat primary hepatocytes [3] = assay: Glucose production (output) in rat primary hepatocytes; type: cell-based; settings: 5 hr, concentration-dependent
Text: (§2) These assays were described previously, [25].

L6 myotubes [4] = assay: Glucose uptake in L6 myotubes; type: cell-based; settings: 3 hr, concentration-dependent
Text: as §2

rat primary hepatocytes [5] = assay: Fatty acid synthesis ([14C] acetate incorporation) in rat primary hepatocytes; type: cell-based; settings: insulin 10 nmol/l, 24 hr exposure
Experimental: Fatty acid synthesis in rat primary hepatocytes was assayed by measuring [^14C] acetate incorporation into lipids. Rat hepatocytes were treated for 20 hr with ZLN024 at the concentrations described in FBS-free DMEM with or without 10 nmol/l insulin, followed by 4 hr incubation in fresh medium containing 0.1 µCi/ml sodium [^14C] acetate (3.7×103 Bq/ml). Thereafter, cells were washed three times by ice-cold PBS and analyzed as previously described, [22].

L6 myotubes [6] = assay: AMPK and ACC phosphorylation (Western blot) in L6 myotubes; type: cell-based
Text: as §2

L6 myotubes [7] = assay: Mitochondrial membrane potential in L6 myotubes; type: cell-based; settings: various concentrations, 3 hr, vs DMSO
Text: as §2

HeLa cells = assay: AMPK and ACC phosphorylation in HeLa cells deficient in LKB1; type: cell-based
Text: as §2

AMPK α1(1–394) [8] = biological target: T1, AMPK α1(1–394); assay: SPA, inactive α1 subunit truncation; type: biochemical; parameters: α1(1–394), α1(1–335), α1(1–312); made in house
Experimental: (§3) Before the SPA assay, 200 nmol/l recombinant AMPK protein (α1β1γ1, α2β1γ1, α1β2γ1, α2β2γ1, α1(1–394), α1(1–335), α1(1–312)) was constructed, expressed, purified and fully phosphorylated as described previously. The SPA reactions were performed in 96-well plates in a final volume of 50 µl containing 20 mmol/l Tris-HCl, pH 7.5, 5 mmol/l MgCl2, 1 mmol/l DTT, 2 µmol/l biotin-SAMS, 2 µmol/l ATP and 7.4×10^3 Bq/well [γ-^33P]ATP. The reactions were initiated by the addition of 50 nmol/l recombinant AMPK protein to the reaction solutions, followed by incubation at 30°C for 2 hr. The reactions were then terminated by the addition of 40 µl of stop solution containing 80 µg streptavidin-coated SPA beads per well, 50 mmol/l EDTA and 0.1% Triton X-100 in PBS, pH 7.5, followed by incubation for 1 hr. Finally, 160 µl of suspension solution containing 2.4 mol/l CsCl, 50 mmol/l EDTA and 0.1% Triton X-100 in PBS, pH 7.5, was added to the reaction solution to suspend the SPA beads completely. The SPA signals were measured in a Wallac Microbeta plate counter (PerkinElmer, Waltham, MA, USA) 30 min later.

AMPK α1(1–335) [9] = biological target: T2, AMPK α1(1–335); assay: SPA, inactive α1 subunit truncation; type: biochemical; parameters: α1(1–394), α1(1–335), α1(1–312); made in house
Experimental: as §3

[10] = biological target: T3, recombinant human AMPK α1β2γ1 (Homo sapiens, UniProt O43741+P54619+Q13131); assay: Scintillation proximity assay (SPA), AMPK activation; type: biochemical
T3 construct: made in house
T3 sequence (Q13131 10-559 limits assumed): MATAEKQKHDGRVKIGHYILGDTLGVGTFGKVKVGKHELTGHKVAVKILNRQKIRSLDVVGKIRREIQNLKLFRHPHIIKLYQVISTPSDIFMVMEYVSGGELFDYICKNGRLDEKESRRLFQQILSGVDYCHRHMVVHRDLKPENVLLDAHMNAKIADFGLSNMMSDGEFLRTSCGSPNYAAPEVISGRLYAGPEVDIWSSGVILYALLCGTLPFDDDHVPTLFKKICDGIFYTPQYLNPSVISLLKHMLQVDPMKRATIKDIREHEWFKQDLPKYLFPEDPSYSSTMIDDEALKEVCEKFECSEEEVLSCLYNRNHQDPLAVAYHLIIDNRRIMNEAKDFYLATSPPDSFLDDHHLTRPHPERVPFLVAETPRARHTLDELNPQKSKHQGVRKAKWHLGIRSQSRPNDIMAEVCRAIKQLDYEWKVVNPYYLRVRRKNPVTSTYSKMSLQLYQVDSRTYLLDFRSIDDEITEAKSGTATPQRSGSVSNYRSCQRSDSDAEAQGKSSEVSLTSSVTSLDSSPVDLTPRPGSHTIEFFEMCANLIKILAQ
T3 sequence (O43741 whole entry partner): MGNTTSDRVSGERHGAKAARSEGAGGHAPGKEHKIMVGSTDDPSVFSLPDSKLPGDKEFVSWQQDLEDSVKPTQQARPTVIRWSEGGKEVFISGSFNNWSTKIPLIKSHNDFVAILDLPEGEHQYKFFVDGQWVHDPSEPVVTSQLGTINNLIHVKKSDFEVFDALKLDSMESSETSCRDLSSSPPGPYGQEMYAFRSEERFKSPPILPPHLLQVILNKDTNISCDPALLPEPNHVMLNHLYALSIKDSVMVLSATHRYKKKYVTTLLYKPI
T3 sequence (P54619 whole entry partner): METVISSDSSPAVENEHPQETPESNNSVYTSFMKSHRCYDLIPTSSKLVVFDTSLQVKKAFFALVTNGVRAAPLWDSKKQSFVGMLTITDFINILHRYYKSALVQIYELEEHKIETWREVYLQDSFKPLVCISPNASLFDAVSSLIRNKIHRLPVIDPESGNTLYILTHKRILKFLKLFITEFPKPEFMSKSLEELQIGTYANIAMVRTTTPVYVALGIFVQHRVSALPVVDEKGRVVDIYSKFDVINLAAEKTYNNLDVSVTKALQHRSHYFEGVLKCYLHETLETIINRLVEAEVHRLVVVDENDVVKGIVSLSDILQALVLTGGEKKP
Experimental: as §3

[11] = biological target: T4, recombinant human AMPK α2β2γ1 (Homo sapiens, UniProt P54646); assay: as above; type: biochemical
T4 construct: made in house
T4 sequence (P54646 whole entry): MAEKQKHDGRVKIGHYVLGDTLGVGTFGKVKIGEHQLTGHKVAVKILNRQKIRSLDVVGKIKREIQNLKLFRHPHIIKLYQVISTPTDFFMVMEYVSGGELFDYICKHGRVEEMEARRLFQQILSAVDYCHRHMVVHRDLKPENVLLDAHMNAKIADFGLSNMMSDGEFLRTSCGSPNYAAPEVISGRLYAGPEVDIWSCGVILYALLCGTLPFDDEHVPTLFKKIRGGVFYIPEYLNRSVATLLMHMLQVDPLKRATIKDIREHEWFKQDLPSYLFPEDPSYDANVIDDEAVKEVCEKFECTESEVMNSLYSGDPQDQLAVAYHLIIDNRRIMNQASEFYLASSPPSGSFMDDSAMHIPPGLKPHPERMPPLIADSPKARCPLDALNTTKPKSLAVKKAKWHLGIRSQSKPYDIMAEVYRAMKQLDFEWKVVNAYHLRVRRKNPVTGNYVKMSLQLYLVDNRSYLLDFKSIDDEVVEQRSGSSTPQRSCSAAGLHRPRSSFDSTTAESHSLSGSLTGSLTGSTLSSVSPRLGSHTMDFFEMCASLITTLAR
T4 sequence (O43741 whole entry partner): as the sequence (O43741 whole entry partner) above
T4 sequence (P54619 whole entry partner): as the sequence (P54619 whole entry partner) above
Experimental: as §3

[12] = biological target: T5, recombinant human AMPK α2β2γ1 (Homo sapiens, UniProt O43741+P54619+P54646); assay: as above; type: biochemical
T5 construct: made in house
T5 sequence (P54646 whole entry): as the sequence (P54646 whole entry) above
T5 sequence (O43741 whole entry partner): as the sequence (O43741 whole entry partner) above
T5 sequence (P54619 whole entry partner): as the sequence (P54619 whole entry partner) above
Experimental: as §3

[13] = biological target: T6, recombinant human AMPK α1β2γ1 (Homo sapiens, UniProt Q13131); assay: as above; type: biochemical
T6 construct: made in house
T6 sequence (Q13131 10-559 limits assumed): as the sequence (Q13131 10-559 limits assumed) above
T6 sequence (O43741 whole entry partner): as the sequence (O43741 whole entry partner) above
T6 sequence (P54619 whole entry partner): as the sequence (P54619 whole entry partner) above
Experimental: as §3

[14] = biological target: T7, recombinant human AMPK α2β1γ1 (Homo sapiens, UniProt P54619+P54646); assay: as above; type: biochemical
T7 construct: made in house
T7 sequence (P54646 whole entry): as the sequence (P54646 whole entry) above
T7 sequence (Q9Y478 whole entry partner): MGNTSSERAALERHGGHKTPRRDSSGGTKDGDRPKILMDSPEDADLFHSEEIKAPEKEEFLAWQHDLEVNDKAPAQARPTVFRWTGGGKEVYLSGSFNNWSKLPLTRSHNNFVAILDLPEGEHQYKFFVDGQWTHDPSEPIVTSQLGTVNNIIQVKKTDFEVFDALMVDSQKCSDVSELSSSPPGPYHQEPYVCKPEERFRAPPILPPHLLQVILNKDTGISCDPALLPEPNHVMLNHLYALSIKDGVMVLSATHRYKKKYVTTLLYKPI
T7 sequence (P54619 whole entry): as the sequence (P54619 whole entry partner) above
Experimental: as §3

rat primary hepatocytes [15] = assay: Gene expression (real-time PCR) in rat primary hepatocytes; type: cell-based
Text: This assay was described previously. For details on primer sequences, see Legend for Table S1.

AMPK α1β1γ1 = AMPK α1β1γ1 (Homo sapiens, UniProt P54619+Q13131+Q9Y478); assay: PP2Cα-catalyzed dephosphorylation of AMPK Thr-172; type: biochemical; settings: 5 µmol/l ZLN024
Chain of AMPK α1β1γ1 (Q13131 10-559 limits assumed): as the sequence (Q13131 10-559 limits assumed) above
Chain of AMPK α1β1γ1 (Q9Y478 whole entry): as the sequence (Q9Y478 whole entry partner) above
Chain of AMPK α1β1γ1 (P54619 whole entry): as the sequence (P54619 whole entry partner) above
Experimental: as §1

AMPK α2β1γ1 = AMPK α2β1γ1 (Homo sapiens, UniProt P54619+P54646+Q9Y478); assay: PP2Cα-catalyzed dephosphorylation of AMPK Thr-172; type: biochemical; settings: 5 µmol/l ZLN024
Chain of AMPK α2β1γ1 (P54646 whole entry): as the sequence (P54646 whole entry) above
Chain of AMPK α2β1γ1 (Q9Y478 whole entry): as the sequence (Q9Y478 whole entry partner) above
Chain of AMPK α2β1γ1 (P54619 whole entry): as the sequence (P54619 whole entry partner) above
Experimental: as §1

[16] = primary hepatocytes, 21 hr incubation

T1 sequence (Q13131 10-403): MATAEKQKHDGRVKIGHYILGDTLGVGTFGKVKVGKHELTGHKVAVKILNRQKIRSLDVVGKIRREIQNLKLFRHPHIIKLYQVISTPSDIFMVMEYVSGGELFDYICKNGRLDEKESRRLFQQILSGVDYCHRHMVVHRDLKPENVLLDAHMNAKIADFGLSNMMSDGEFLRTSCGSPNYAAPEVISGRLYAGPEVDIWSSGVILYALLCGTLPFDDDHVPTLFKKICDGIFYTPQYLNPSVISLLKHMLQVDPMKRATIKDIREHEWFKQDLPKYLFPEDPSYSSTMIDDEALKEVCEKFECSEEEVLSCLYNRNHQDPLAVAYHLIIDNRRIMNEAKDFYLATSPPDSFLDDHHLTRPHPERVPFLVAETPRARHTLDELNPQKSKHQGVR

effect on dephosphorylation of AMPK α1(1–394) by PP2Cα (AMPK α1(1–394) [1]): did not affect the dephosphorylation
effect on dephosphorylation of AMPK α1(1–335) by PP2Cα (AMPK α1(1–335) [2]): did not affect the dephosphorylation
maximal activation of α1(1–394) (AMPK α1(1–394) [8]): 2.3 fold
EC50 (AMPK α1(1–394) [8]; read-out: EC50, activation of α1(1–394)): 920 nM
maximal activation of α1(1–335) (AMPK α1(1–335) [9]): 2.8 fold
EC50 (AMPK α1(1–335) [9]; read-out: EC50, activation of α1(1–335)): 2230 nM
EC50 [10]: 1100 nM
activation of α2β2γ1 activity [11]: 1.6 fold
EC50 [12]: 130 nM
activation of α1β2γ1 activity [13]: 1.7 fold
EC50 ([14]; SPA): 950 nM
activation of α2β1γ1 activity ([14]; SPA): 1.7 fold
additional activation of AMPK α2β1γ1 ([14]; ZLN024 increased to 10 µmol/l in the presence of saturating AMP (12.5 µmol/l)): 1.3 fold
mRNA level of G6Pase (rat primary hepatocytes [15]; [16]): decreased significantly
Compound: Cc1ccc(OCCSc2ncccn2)c(Br)c1 [ZLN024]
glucose production (rat primary hepatocytes [3]): obviously repressed
glucose uptake (L6 myotubes [4]): stimulated
insulin stimulated synthesis of fatty acid (rat primary hepatocytes [5]): significantly decreased
phosphorylation of AMPK and ACC (L6 myotubes [6]; 3 hr incubation, concentration-dependent): stimulated
time to maximal effect on AMPK and ACC phosphorylation (L6 myotubes [6]; ZLN024 20 µmol/l): ≤ 30 min
time to start of increase of AMPK and ACC phosphorylation (L6 myotubes [6]; ZLN024 20 µmol/l): ≤ 15 min
mitochondrial membrane potential (MMP) (L6 myotubes [7]): not affected
phosphorylation of AMPK and ACC (HeLa cells; 3 hr, concentration-dependent): stimulated
time to peak of AMPK and ACC phosphorylation (HeLa cells; ZLN024 20 µmol/l): ≤ 30 min
time to start of increase of AMPK and ACC phosphorylation (HeLa cells; ZLN024 20 µmol/l): ≤ 15 min
mRNA level of PEPCK (rat primary hepatocytes [15]; [16]): decreased significantly
gene expression of fatty acid synthase (FAS) (rat primary hepatocytes [15]; rat primary hepatocytes, 21 hr): significantly decreased
protection of AMPK α1β1γ1 against dephosphorylation by PP2Cα (AMPK α1β1γ1): provided protection against dephosphorylation
protection of AMPK α2β1γ1 against dephosphorylation by PP2Cα (AMPK α2β1γ1): provided protection against dephosphorylation
